In US4138589A, “Substituted isophthalamic acids” (Mallinckrodt, Inc., priority 1977, dated 1979):
Values joined by “and” are separate entries in the source; they are usually repeats but may differ in a detail not shown here. Identical values can stand only once. Counter-ions that a name gives are not always drawn. Like-named read-outs stand apart in the source and are kept apart here.

What was measured:
Water solubility = format: physicochemical; conditions: for solubility: water
[1] = found by V. H. Wallingford; cited from earlier work
[2] = prior art; cited from earlier work
[3] = Acute Intravenous Toxicity Studies in Mice; format: in vivo; conditions: mouse, in vivo, iv, meglumine salt solution, 28.27% iodine, lateral tail vein, 1 ml/min, seven day observation; read-out: LD50 I.V. (Mice)
Protocol: (§1) Satisfactory intravenous urograms are obtained when any of the preparations described in Examples 28-32 is administered to dogs at a dosage of 350 mg. I/kg. Toxicity evaluations by three different techniques were carried out on solutions of the meglumine salts of three 5-acetamido-N-[poly(hydroxyalkyl)alkyl]2,4,6-triiodoisophthalamic acids of the invention. The techniques utilized are outlined below.
(§2) Swiss Albino mice (Charles River) were dosed in the lateral tail vein with solutions of the iodinated compound containing 28.27% of iodine, injected at the rate of 1 ml/min. […] The LD50 values were calculated by the method of Litchfield and Wilcoxon (J. of Pharmac. and Exptl. Therap. 96: 99-113, 1949).

mice [4] = experiment: Intracerebral Toxicity in Mice; format: in vivo, Swiss Albino mice (Charles River); conditions: meglumine salt solution, seven day observation
Protocol: as §1
Swiss Albino mice (Charles River) were used. Fixed volumes of solutions of various concentrations of the iodinated compounds were injected intracerebrally via a 27 gauge needle, (1/4 inch length) according to the method of Haley, et al. (Br. J. of Pharmac. 12:12-15, 1957). The animals were observed immediately after injections and daily throughout a seven day observation period. The LD50 values were calculated by the method of Litchfield and Wilcoxon (J. of Pharmac. and Exptl. Therap. 96:99-113, (1949).

rats = experiment: Intracisternal Toxicity in Rats; format: in vivo, Sprague Dawley (Carworth) rats; conditions: meglumine salt solution, two day observation
Protocol: as §1
Sprague Dawley (Carworth) rats were used. The method used was a variation of the procedure outlined by Melartin et al. (Invest. Rad. 5:13-21, 1970). After dosing, the animals were housed individually, and observed for immediate reactions and periodically for a two day observation period. The LD50 values were calculated according to the method of Litchfield and Wilcoxon, (J. of Pharmac. and Exptl. Therap. 96:99-115, 1949).

mice [5] = experiment: Acute Intravenous Toxicity Studies in Mice; format: in vivo; conditions: meglumine salt solution, 28.27% iodine, lateral tail vein, 1 ml/min, seven day observation; 10080 min
Protocol: as §1, §2

[6] = temperature not stated, read-out: solubility

In the case of `CC(=O)Nc1c(I)c(C(=O)[O-])c(I)c(C(=O)NC(COC(C)=O)(COC(C)=O)COC(C)=O)c1I.[Na+]`, the solubility (Water solubility; sodium salt powder, read-out: solubility in water) is reported as no less than 1000 mg/mL.
Work on `COCC(=O)Nc1c(I)c(C(=O)[O-])c(I)c(C(=O)NC(CO)(CO)CO)c1I.[Na+]` yielded a solubility (Water solubility; sodium salt, 25° C., read-out: solubility in water) of roughly 674 mg/mL.
In the case of `CC(=O)Nc1c(I)cc(I)c(C(=O)[O-])c1I.[Na+]`, the “water solubility (in words)” value [1] is listed as “unexpectedly high” and the “toxicity (in words)” value [2] is listed as “unexpectedly low”.
For `CC(=O)Nc1c(I)c(C(=O)O)c(I)c(C(=O)NCCO)c1I` [5-acetamido-2,4,6-triiodo-N-(2-hydroxyethyl)-isophthalamicacid, reference compound], the LD50 at 168 h [3] was 5810 mg/kg, the “LD50 Intracerebral (Mice)” value (mice [4]) was 174 mg. contained iodine/kg. anima and the “LD50 Intracisternal (Rats)” value (rats) was 49 mg. contained iodine/kg. anima.
`CC(=O)Nc1c(I)c(C(=O)O)c(I)c(C(=O)NC(CO)(CO)CO)c1I` [Example 7, meglumine salt of 5-acetamido-N-[tris(hydroxymethyl)methyl]-2,4,6-triiodoisophthalamic acid] gave a solubility (Water solubility; [6]) greater than 600 mg/mL.
With `CC(=O)Nc1c(I)c(C(=O)O)c(I)c(C(=O)NC(C)(CO)CO)c1I` [Example 10, 5-Acetamido-N-[2-(1,3-dihydroxy-2-methyl) Propyl]-2,4,6-triiodoisophthalamic Acid] the LD50 at 168 h [3] was 4650 mg/kg, the “LD50 Intracerebral (Mice)” value (mice [4]) was 790 mg. contained iodine/kg. anima and the “LD50 Intracisternal (Rats)” value (rats) was 242 mg. contained iodine/kg. anima.
In the case of `CC(=O)Nc1c(I)c(C(=O)O)c(I)c(C(=O)NC(C)(CO)CO)c1I` [Example 11, 5-Acetamido-N-[2-(1,3-dihydroxy-2-methyl)-propyl]-2,4,6-triiodoisophthalamic Acid, Sodium Salt], the solubility (Water solubility; [6]) is reported as roughly 820 mg/mL.
In the case of `CC(=O)Nc1c(I)c(C(=O)O)c(I)c(C(=O)NC(C)(COC(C)=O)COC(C)=O)c1I` [Example 23, Sodium 5-acetamido-N-[(1,3-diacetoxy-2-methyl)-2-propyl]-2,4,6-triiodoisophthalamate], the “crystallization of aqueous solution on standing” value (Water solubility; 102.5% w/v solution, room temperature) is reported as “No crystallization occurred” and the solubility (Water solubility; [6]) is reported as greater than 1000 mg/mL.
In the case of `COCC(=O)Nc1c(I)c(C(=O)O)c(I)c(C(=O)NC(CO)(CO)CO)c1I` [Example 26(d), 2,4,6-Triiodo-5-methoxyacetamido-N-[tris(hydroxymethyl)methyl]isophthalamic Acid], the “LD50 Intracerebral (Mice)” value (mice [4]) is reported as ~650 mg. contained iodine/kg. anima and the “LD50 Intracisternal (Rats)” value (rats) is reported as ~150 mg. contained iodine/kg. anima.
With `CC(=O)Nc1c(I)c(C(=O)O)c(I)c(C(=O)NC(CO)(CO)CO)c1I` [Examples 4(A) and 5, 5-Acetamido-N-[tris(hydroxymethyl)methyl]-2,4,6-triiodoisophthalamic Acid] the LD50 at 168 h [3] was 6150 mg/kg, the “LD50 I.V. (Mice)” value (mice [5]) was 6200 mg. contained iodine/kg. anima and the “LD50 Intracerebral (Mice)” value (mice [4]) was 700 mg. contained iodine/kg. anima and 638 mg. contained iodine/kg. anima. The “LD50 Intracisternal (Rats)” value (rats) was 151 mg. contained iodine/kg. anima.
For `CNC(=O)c1c(I)c(NC(C)=O)c(I)c(C(=O)O)c1I` [Iothalamic Acid, 5-acetamido-2,4,6-triiodo-N-methylisophthalamic acid, reference compound], the LD50 at 168 h [3] was 5740 mg/kg, the “LD50 Intracerebral (Mice)” value (mice [4]) was 280 mg. contained iodine/kg. anima and the “LD50 Intracisternal (Rats)” value (rats) was 86 mg. contained iodine/kg. anima.
For `CC(=O)Nc1c(I)c(NC(C)=O)c(I)c(C(=O)O)c1I` [diatrizoic acid, 3,5-diacetamido-2,4,6-triiodobenzoic acid], the “toxicity (in words)” value [2] is listed as “still further reduced toxicity as compared with acetrizoic acid”.
For `Nc1c(I)c(C(=O)O)c(I)c(C(=O)NC(CO)(CO)CO)c1I` [sodium salt of 5-amino-N-[tris-(hydroxymethyl)methyl]-2,4,6-triiodoisophthalamic acid], the solubility (Water solubility; sodium salt, temperature not stated, read-out: water solubility) was roughly 800 mg/mL.
`CC(CO)(CO)NC(=O)c1c(I)c(N)c(I)c(C(=O)O)c1I` [sodium salt of Example 9] gave a solubility (Water solubility; [6]) of roughly 930 mg/mL.
